pIC50: −log10 of the molar value.
tested on: β-catenin-TCF-mediated reporter transcription activity in Colo 205 cells; assay: Colo 205 reporter assay (TCF/LEF luciferase); assay type: cell-based; details: Colo 205 TCF/LEF luciferase reporter, five hours after addition of compound; read-out: TCF reporter Colo205 IC50
Outline: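 Luciferase signal from a TCF/LEF-driven reporter, stably integrated in Colo 205 colon cancer cells, was measured 5 h after compound addition.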

Question: `Cc1nc(NCc2cnn(Cc3cccnc3C(F)(F)F)c2)nc2c1NC(=O)[C@H](C)N2C` [Compound 183] was tested. Which pIC50 did it give?
Answer: > 6.52

same assay, conditions: Homo sapiens, COLO 205, 5 h, Colo 205 TCF/LEF luciferase reporter, five hours after addition of compound; read-out: TCF reporter Colo205 IC50

Question: `Cc1nc(N[C@H]2C[C@@H](Nc3ccc(OC(F)(F)F)cn3)C2)nc2c1NC(=O)[C@H](C(C)C)N2C` [Compound 576, (S)-7-isopropyl-4,8-dimethyl-2-((cis-3-((5-(trifluoromethoxy)pyridin-2-yl)amino)cyclobutyl)amino)-7,8-dihydropteridin-6(5H)-one] was tested. Which pIC50 did it give?
Answer: > 6.52

Question: With `Cc1nc(NC2CN(C(=O)Cc3cccc(F)c3F)C2)nc2c1NC(=O)[C@H](C(C)C)N2C` [Compound 632, (S)-2-((1-(2-(2,3-difluorophenyl)acetyl)azetidin-3-yl)amino)-7-isopropyl-4,8-dimethyl-7,8-dihydropteridin-6(5H)-one] as the molecule, how does the pIC50 read?
Answer: 6.00 to 6.52

Question: How did the pIC50 turn out when `Cc1nc(N[C@@H]2CC[C@H](Nc3cnc(C(F)(F)F)cn3)C2)nc2c1NC(=O)[C@H](C)N2C` [Compound 737, (S)-4,7,8-trimethyl-2-(((1R,3S)-3-((5-(trifluoromethyl)pyrazin-2-yl)amino)cyclopentyl)amino)-7,8-dihydropteridin-6(5H)-one] was run?
Answer: 5.30 to 6.00

Question: How did the pIC50 turn out when `CC[C@H]1C(=O)Nc2c(C)nc(NC3CN(C(=O)c4cc(F)c(F)c(F)c4)C3)nc2N1C` [Compound 739, (S)-7-ethyl-4,8-dimethyl-2-((1-(3,4,5-trifluorobenzoyl)azetidin-3-yl)amino)-7,8-dihydropteridin-6(5H)-one] was run?
Answer: 6.00 to 6.52

Question: With `Cc1nc(NCc2cnn(Cc3ccc(F)cc3)c2C)nc2c1NC(=O)[C@H](C)N2C` [Compound 74, (7S)-2-(((1-(4-fluorobenzyl)-5-methyl-1H-pyrazol-4-yl)methyl)amino)-4,7,8-trimethyl-7,8-dihydropteridin-6(5H)-one] as the molecule, how does the pIC50 read?
Answer: 6.00 to 6.52

Question: `Cc1nc(N[C@H]2C[C@H](NC(=O)Cc3ccc(C(F)(F)F)nc3)C2)nc2c1NC(=O)[C@H](C(C)C)N2C` [Compound 560, N-(trans-3-(((S)-7-isopropyl-4,8-dimethyl-6-oxo-5,6,7,8-tetrahydropteridin-2-yl)amino)cyclobutyl)-2-(6-(trifluoromethyl)pyridin-3-yl)acetamide] was tested. Which pIC50 did it give?
Answer: ≤ 5.30

Question: With `COc1nc(C(F)(F)F)ccc1Cn1cc(CNc2nc(C)c3c(n2)N(C)[C@@H](C)C(=O)N3)cn1` [Compound 218, (7S)-2-(((1-((2-methoxy-6-(trifluoromethyl)pyridin-3-yl)methyl)-1H-pyrazol-4-yl)methyl)amino)-4,7,8-trimethyl-7,8-dihydropteridin-6(5H)-one] as the molecule, how does the pIC50 read?
Answer: > 6.52

Question: `Cc1nc(N[C@H]2C[C@H](Nc3ccnc(C(F)(F)F)n3)C2)nc2c1NC(=O)[C@H](C(C)C)N2C` [Compound 540, (S)-7-isopropyl-4,8-dimethyl-2-((trans-3-((2-(trifluoromethyl)pyrimidin-4-yl)amino)cyclobutyl)amino)-7,8-dihydropteridin-6(5H)-one] was tested. Which pIC50 did it give?
Answer: 5.30 to 6.00

Question: `Cc1nc(N[C@H]2C[C@H](Nc3cccc(C(F)(F)F)n3)C2)nc2c1NC(=O)[C@H](C(C)C)N2C` [Compound 531, (S)-7-isopropyl-4,8-dimethyl-2-((trans-3-((6-(trifluoromethyl)pyridin-2-yl)amino)cyclobutyl)amino)-7,8-dihydropteridin-6(5H)-one] was tested. Which pIC50 did it give?
Answer: 6.00 to 6.52

Question: With `C=C1C(=O)Nc2c(C)nc(NCc3cnn(Cc4ccc(C(F)(F)F)nc4)c3)nc2N1C` [Compound 749, 4,8-dimethyl-7-methylene-2-(((1-((6-(trifluoromethyl)pyridin-3-yl)methyl)-1H-pyrazol-4-yl)methyl)amino)-7,8-dihydropteridin-6(5H)-one] as the molecule, how does the pIC50 read?
Answer: 5.30 to 6.00

Question: `COc1ccc(Cn2cc(CNc3nc(C)c4c(n3)N(C)[C@@H](C(C)C)C(=O)N4)cn2)cn1` [Compound 429, (7S)-7-isopropyl-2-(((1-((6-methoxypyridin-3-yl)methyl)-1H-pyrazol-4-yl)methyl)amino)-4,8-dimethyl-7,8-dihydropteridin-6(5H)-one] was tested. Which pIC50 did it give?
Answer: > 6.52
